Test systems include COLO 205; HCC 2998; HCT-116; HCT-15; HOP-62; HOP-92; HT-29; IGROV-1; KM12; Malme-3M; OVCAR-3; OVCAR-8; RXF 393; SK-MEL-28; UACC-257; UO-31; RPMI-8226; DU-145; MDA-MB-435.
Experiment in all cases: DTP human tumour cell line panel, 48 h

Molecules are shown by their SMILES.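 Five concentrations, 48 hours, 96-well plates. Abbreviation: GI50, concentration required for 50% inhibition of growth.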 Calls of active or inactive are those of the source. No stated cut-off is given here; in the data, active = GI50 up to about 1.1 µM and inactive = higher. Some results are limits rather than exact numbers.

The GI50 is the concentration at which growth is held to half of that of the control. Consider `CCC(C)C(N)C(=O)NC(CC(N)=O)C(=O)NC(CC(C)C)C(=O)NC(CCCCN)C(=O)NC(C)C(=O)NC(CC(C)C)C(=O)NC(C)C(=O)NC(C)C(=O)NC(CC(C)C)C(=O)NC(C)C(=O)NC(CCCCN)C(=O)NC(CCCCN)C(=O)NC(C(=O)NC(CC(C)C)C(N)=O)C(C)CC` (stereo unspecified), for which the GI50 in the assay on COLO 205 was 16.1 µM (inactive); with HCC 2998, > 42.2 µM (inactive); with HCT-116, 15.6 µM (inactive); in the assay with HCT-15, 16.6 µM; in the assay with HOP-62, 2.55 µM (inactive); in the assay on HOP-92 it was 1.14 µM (inactive). Moreover, the GI50 is 19.5 µM (inactive) with HT-29; 17.8 µM (inactive) in the assay on IGROV-1; 14.5 µM (inactive) with KM12; 5.98 µM (inactive) in the assay with Malme-3M; 8 µM (inactive) in the assay on OVCAR-3; 17.5 µM (inactive) in the assay with OVCAR-8. In addition, the GI50 was 8.61 µM (inactive) with RXF 393, 8.59 µM (inactive) with SK-MEL-28, 14.2 µM (inactive) with UACC-257 and 18.1 µM (inactive) with UO-31.

With `COc1ccc(-c2cc(-c3cc(C)ccc3O)nc(O)n2)cc1`, the GI50 with COLO 205 was > 100 µM (inactive); with HCC 2998, > 100 µM (inactive); with HCT-116, 77.1 µM (inactive); with HOP-62 it was 22.6 µM (inactive); in the assay with HOP-92 it was 32.6 µM (inactive); with HT-29, > 100 µM (inactive). The GI50 is > 100 µM (inactive) in the assay on IGROV-1; > 100 µM (inactive) with KM12; > 100 µM (inactive) in the assay on Malme-3M; > 100 µM (inactive) in the assay with OVCAR-3; 74.8 µM (inactive) in the assay with OVCAR-8; > 100 µM (inactive) with RPMI-8226. In addition, the GI50 in the assay with RXF 393 was 32.6 µM (inactive); with SK-MEL-28, > 100 µM (inactive); in the assay on UACC-257 it was > 100 µM (inactive); in the assay on UO-31, 76.6 µM (inactive).

Turning to `NC(=S)NNC(=O)/C(=C/c1ccc(/C=C(\NC(=O)c2ccccc2)C(=O)NNC(N)=S)cc1)NC(=O)c1ccccc1`, the GI50 with COLO 205 was > 100 µM (inactive); in the assay with HCC 2998 it was > 100 µM (inactive); with HCT-116, 75 µM (inactive); in the assay with HCT-15, more than 100 µM; with HOP-62, > 100 µM (inactive); in the assay with HOP-92 it was > 100 µM (inactive). In addition, the GI50 was > 100 µM (inactive) with HT-29; > 79.3 µM (inactive) in the assay on IGROV-1; > 100 µM (inactive) in the assay on KM12; > 100 µM (inactive) in the assay with Malme-3M; > 100 µM (inactive) in the assay on OVCAR-3; 64 µM (inactive) with OVCAR-8. For the same molecule, the GI50 with RPMI-8226 was 32.1 µM (inactive); in the assay on RXF 393 it was > 75 µM (inactive); in the assay with SK-MEL-28 it was > 100 µM (inactive); in the assay with UACC-257, > 100 µM (inactive); with UO-31, > 100 µM (inactive).

In the case of `CCCCCCCCCCNC(=S)OCCCC`, the GI50 was 24.6 µM (inactive) with HCC 2998; 18.3 µM (inactive) in the assay on HCT-116; 19.2 µM in the assay on HCT-15; 27.2 µM (inactive) in the assay with HOP-62; 16.7 µM (inactive) in the assay on HOP-92; 19.5 µM (inactive) with HT-29. The GI50 was 28.1 µM (inactive) in the assay on IGROV-1; 14.7 µM (inactive) in the assay with KM12; 27.7 µM (inactive) in the assay on Malme-3M; 33.3 µM (inactive) in the assay with OVCAR-8; 17.1 µM (inactive) in the assay with RPMI-8226; 34.9 µM (inactive) in the assay on RXF 393. The values for the GI50 in the assay with SK-MEL-28, in the assay on UACC-257 and with UO-31 were 25.8 µM (inactive), 23.4 µM (inactive) and 23.5 µM (inactive), respectively.

As to `CN(C)C(=S)/N=c1\ss/c(=N/c2ccccc2)n1C`, the GI50 in the assay with HCC 2998 was > 100 µM (inactive); in the assay with HCT-116, 38.5 µM (inactive); in the assay with HCT-15 it was more than 100 µM; in the assay with HOP-62, 48.1 µM (inactive); in the assay on HOP-92 it was 30.5 µM (inactive); with HT-29, > 100 µM (inactive). Also, the GI50 with IGROV-1 is > 100 µM (inactive); in the assay on KM12 it was > 100 µM (inactive); in the assay on Malme-3M, 40.5 µM (inactive); in the assay on OVCAR-8 it was 73.6 µM (inactive); in the assay with RPMI-8226 it was > 100 µM (inactive); in the assay on RXF 393 it was 28.2 µM (inactive). Further, the GI50 was 64.3 µM (inactive) in the assay on SK-MEL-28, > 100 µM (inactive) with UACC-257 and > 100 µM (inactive) in the assay on UO-31.

`CC(=O)Oc1cc(C)c2c(c1OC(C)=O)CC1(O2)[C@@H](C)CCC2[C@@]3(C)CC[C@H](OC(C)=O)C(C)(C)C3CC[C@]21C` (stereo partly specified): the GI50 with COLO 205 is 1.63 µM (inactive); in the assay on HCC 2998 it was 5.42 µM (inactive); with HCT-116 it was 4.19 µM (inactive); in the assay on HCT-15 it was 3.53 µM; with HOP-62, 2.65 µM (inactive); with HOP-92, 3.14 µM (inactive). Further, the GI50 in the assay with HT-29 was 5.43 µM (inactive); with IGROV-1, 2.01 µM (inactive); with KM12, 5.13 µM (inactive); in the assay with Malme-3M, 2.86 µM (inactive); in the assay with OVCAR-3, 2.72 µM (inactive); with OVCAR-8 it was 3.01 µM (inactive). The GI50 with RPMI-8226 was 3.83 µM (inactive); with RXF 393, 1.26 µM (inactive); with SK-MEL-28, 4.41 µM (inactive); in the assay on UACC-257, 5.97 µM (inactive); in the assay with UO-31, 1.99 µM (inactive).

With `O=C(Nc1nc2ccccc2n1Cc1ccc(Cl)cc1)NC12CC3CC(CC(C3)C1)C2`, the GI50 was 36.2 µM (inactive) in the assay with COLO 205; > 100 µM (inactive) in the assay with HCC 2998; 19.4 µM (inactive) in the assay with HCT-116; 71.6 µM in the assay on HCT-15; 17.1 µM (inactive) in the assay with HOP-62; 19.9 µM (inactive) with HOP-92. The GI50 in the assay with HT-29 was 74.3 µM (inactive); in the assay on IGROV-1, 41 µM (inactive); in the assay with KM12 it was 53.8 µM (inactive); with Malme-3M it was 19.1 µM (inactive); with OVCAR-3, 22.6 µM (inactive); with RPMI-8226, 48.9 µM (inactive). For the same molecule, the GI50 was 20.5 µM (inactive) in the assay with RXF 393, 16 µM (inactive) with SK-MEL-28, 28.2 µM (inactive) in the assay on UACC-257 and 48 µM (inactive) in the assay on UO-31.

Consider `CC1=C(CO)C(=O)O[C@@H]([C@@H](CO)[C@H]2CCC3C4C[C@@H](O)[C@@]5(O)CC=CC(=O)[C@]5(C)C4CC[C@@]32C)C1` (stereo partly specified), for which the GI50 is 30 µM (inactive) with COLO 205; > 100 µM (inactive) in the assay on DU-145; 29.2 µM (inactive) in the assay with HCC 2998; 37.2 µM (inactive) in the assay with HCT-116; 32 µM with HCT-15; 23.5 µM (inactive) in the assay with HOP-62. In addition, the GI50 with HOP-92 is 71 µM (inactive); in the assay with HT-29 it was 44.2 µM (inactive); in the assay on IGROV-1 it was > 100 µM (inactive); in the assay on KM12 it was 43.3 µM (inactive); with MDA-MB-435 it was 38.5 µM (inactive); in the assay on Malme-3M, 94 µM (inactive). Moreover, the GI50 was 22 µM (inactive) in the assay on OVCAR-3; 73.1 µM (inactive) with OVCAR-8; 34.3 µM (inactive) in the assay with RPMI-8226; 15.2 µM (inactive) with RXF 393; 58.6 µM (inactive) in the assay with UACC-257; 24.4 µM (inactive) with UO-31.

For the molecule `CC(C)CCC[C@@H](C)C1CCC2[C@@H]3CC=C4C[C@@H](C(=O)NCCN(C)C)CC[C@]4(C)C3CC[C@@]21C` (stereo partly specified), the GI50 was 19.5 µM (inactive) in the assay with COLO 205; 23.5 µM (inactive) in the assay on HCC 2998; 19 µM with HCT-15; 18.9 µM (inactive) in the assay with HOP-62; 5.89 µM (inactive) in the assay on HOP-92; 34.2 µM (inactive) in the assay with HT-29. In addition, the GI50 with IGROV-1 was 31.1 µM (inactive); with KM12, 14.9 µM (inactive); in the assay with Malme-3M, 28.9 µM (inactive); in the assay on OVCAR-3, 31.4 µM (inactive); with OVCAR-8, 33.1 µM (inactive); with RPMI-8226, 19.8 µM (inactive). In addition, the GI50 with RXF 393 is > 100 µM (inactive); with SK-MEL-28 it was 35.2 µM (inactive); with UACC-257, 22.4 µM (inactive); in the assay with UO-31, 23.1 µM (inactive).

Consider `O=c1c(O)cccn1C1OC(CO)C(O)C1O` (stereo unspecified), for which the GI50 in the assay on COLO 205 is > 100 µM (inactive); in the assay on HCC 2998, > 100 µM (inactive); with HCT-116, > 100 µM (inactive); in the assay with HCT-15, more than 100 µM; in the assay with HOP-92, > 100 µM (inactive); in the assay on HT-29 it was > 100 µM (inactive). Also, the GI50 with IGROV-1, in the assay with KM12, in the assay on Malme-3M, in the assay on OVCAR-8, with RPMI-8226 and in the assay on RXF 393 was > 100 µM (inactive) in each case. For the same molecule, the GI50 with SK-MEL-28, with UACC-257 and in the assay on UO-31 was > 100 µM (inactive) in each case.

For `CC(=O)OC1CC2C(C)(C)C(=O)C=C[C@]2(C)C2CCC3(C)C(c4ccoc4)C(=O)[C@H]4O[C@]43[C@]12C` (stereo partly specified), the GI50 in the assay on COLO 205 is > 100 µM (inactive); with HCC 2998, 17.1 µM (inactive); in the assay with HCT-116 it was 15.4 µM (inactive); in the assay with HCT-15 it was 15.1 µM; in the assay on HOP-62 it was 22.6 µM (inactive); in the assay with HOP-92 it was 12.6 µM (inactive). The GI50 in the assay on IGROV-1 was 25.5 µM (inactive); in the assay on Malme-3M, 16.1 µM (inactive); in the assay on OVCAR-8, 19.4 µM (inactive); in the assay with RPMI-8226 it was 15.9 µM (inactive); in the assay with RXF 393, 19.1 µM (inactive); in the assay on SK-MEL-28, 15.5 µM (inactive). In the assay with UO-31, the GI50 was 18.7 µM (inactive).

Regarding `C[C@]12C=CC(=O)C=C1CC[C@H]1[C@@H]3C[C@@H](O)[C@](O)(C(=O)CO)[C@@]3(C)C[C@H](O)[C@@]12F` [TRIAMCINOLONE], the GI50 with COLO 205 is > 100 µM (inactive); in the assay with HCC 2998, > 100 µM (inactive); in the assay on HCT-116, > 100 µM (inactive); in the assay with HCT-15, more than 100 µM; with HOP-62, > 100 µM (inactive); with HOP-92, > 100 µM (inactive). The GI50 in the assay with HT-29, in the assay on IGROV-1, in the assay with KM12, with Malme-3M, with OVCAR-3 and in the assay on OVCAR-8 was > 100 µM (inactive) each time. Also, the GI50 with RPMI-8226 is 11 µM (inactive); in the assay with RXF 393 it was > 100 µM (inactive); in the assay with SK-MEL-28, > 100 µM (inactive); with UACC-257 it was > 100 µM (inactive); in the assay on UO-31, > 100 µM (inactive).

The record behind these values is ChEMBL document CHEMBL1201862, “PubChem BioAssay data set” (2004).
